Data set [1] concerns Plasmodium falciparum. Kind of data set: Antiplasmodial activity against chloroquine-resistant Plasmodium falciparum Bre1. Type of data set: functional, organism-based.
Data set [2] deals with Plasmodium falciparum. In words: Antiplasmodial activity against chloroquine-resistant Plasmodium falciparum W2. Type of data set: functional, organism-based.
The subject of data set [3] is Plasmodium falciparum. In words: Antiplasmodial activity against chloroquine-sensitive Plasmodium falciparum 3D7. Type of data set: functional, organism-based.
For data set [4], the system named is Plasmodium falciparum. In words: Antiplasmodial activity against chloroquine-resistant Plasmodium falciparum FCR3. The class given is functional, organism-based.
Data set [5] deals with Plasmodium falciparum. In words: Antiplasmodial activity against chloroquine-sensitive Plasmodium falciparum IMT031. Type of data set: functional, organism-based.
In data set [6] the test system is Plasmodium falciparum. Kind of data set: Antiplasmodial activity against chloroquine-sensitive Plasmodium falciparum D6. The class given is functional, organism-based.
In a further data set the test system is L6. Kind of data set: Toxicity against rat L6 cells assessed as induction of cell death at 100 uM. The class given is cell-based. The conditions noted are these: l6, 100 µM.

Bounds are passed on as bounds.

Consider `CCC(C)(C)C(=O)O[C@H]1C[C@@H](C)C=C2C=C[C@H](C)[C@H](CC[C@@H](O)C[C@@H](O)CC(=O)O)[C@H]21`, for which the IC50 with Plasmodium falciparum [1] (Plasmodium falciparum, Bre1) was found to be 48.4 µM; in the data set with Plasmodium falciparum [2] (Plasmodium falciparum, W2), 58.9 µM; with Plasmodium falciparum [3], 69.8 µM; with Plasmodium falciparum [4], 76.7 µM; with Plasmodium falciparum [5] it was 36.9 µM; in the data set on Plasmodium falciparum [6], 51.3 µM.
Take `CC[C@H](C)C(=O)O[C@H]1C[C@@H](C)C=C2C=C[C@H](C)[C@H](CC[C@@H](O)C[C@@H](O)CC(=O)O)[C@H]21`: the IC50 came out at 52.6 µM with Plasmodium falciparum [1] (Plasmodium falciparum, Bre1); 103 µM with Plasmodium falciparum [2] (Plasmodium falciparum, W2); 95.3 µM with Plasmodium falciparum [3]; 43.9 µM in the data set with Plasmodium falciparum [4]; 57.8 µM in the data set with Plasmodium falciparum [5]; 44.3 µM in the data set with Plasmodium falciparum [6].
On to `CC[C@H](C)C(=O)O[C@H]1CCC=C2C=C[C@H](C)[C@H](CC[C@@H](O)C[C@@H](O)CC(=O)O)[C@H]21` [listing 1 of 2 here], for which the IC50 is > 200 µM in the data set on Plasmodium falciparum [1] (Plasmodium falciparum, Bre1); 88.5 µM in the data set on Plasmodium falciparum [2]; > 200 µM in the data set on Plasmodium falciparum [3]; > 200 µM in the data set with Plasmodium falciparum [4]; > 200 µM in the data set with Plasmodium falciparum [5]; > 200 µM with Plasmodium falciparum [6].
For the molecule `CC[C@H](C)C(=O)O[C@H]1CCC=C2C=C[C@H](C)[C@H](CC[C@@H](O)C[C@@H](O)CC(=O)O)[C@H]21` [listing 2 of 2 here], the half-maximal inhibitory concentration (IC50) is 102 µM in the data set on Plasmodium falciparum [1] and > 200 µM with Plasmodium falciparum [2].
For `CC(C)c1c(C(=O)Nc2ccccc2)c(-c2ccccc2)c(-c2ccc(F)cc2)n1CC[C@@H](O)C[C@@H](O)CC(=O)O` [ATORVASTATIN CALCIUM], the IC50 worked out at 5.8 µM in the data set on Plasmodium falciparum [1] (Plasmodium falciparum, Bre1); 4.8 µM in the data set on Plasmodium falciparum [2] (Plasmodium falciparum, W2); 11.8 µM in the data set with Plasmodium falciparum [3]; 5.1 µM with Plasmodium falciparum [4]; 5.3 µM in the data set on Plasmodium falciparum [5]; 5.8 µM in the data set with Plasmodium falciparum [6]. Besides, the IC90 stood at 24 µM in the data set on Plasmodium falciparum [1] (Plasmodium falciparum, Bre1); 14.8 µM with Plasmodium falciparum [2] (Plasmodium falciparum, W2); 39 µM in the data set on Plasmodium falciparum [3]; 23.6 µM in the data set with Plasmodium falciparum [4]; 15.8 µM in the data set on Plasmodium falciparum [5]; 18.1 µM with Plasmodium falciparum [6].
Consider `CC(C)c1c(C(=O)Nc2ccccc2)c(-c2ccccc2)c(-c2ccc(F)cc2)n1CC[C@@H](O)C[C@@H](O)CC(=O)O` [ATORVASTATIN], for which the Activity in the data set on L6 is 27%.
As for `CC(C)n1c(/C=C/C(O)CC(O)CC(=O)O)c(-c2ccc(F)cc2)c2ccccc21` (stereo not drawn) [FLUVASTATIN SODIUM], the IC50 in the data set on Plasmodium falciparum [1] (Plasmodium falciparum, Bre1) was 92.5 µM; in the data set with Plasmodium falciparum [2] (Plasmodium falciparum, W2) it was 90.2 µM; in the data set with Plasmodium falciparum [3], 108 µM; with Plasmodium falciparum [4], 116 µM; in the data set on Plasmodium falciparum [5], 87.1 µM; in the data set with Plasmodium falciparum [6] it was 92.3 µM.
Turning to `CC[C@H](C)C(=O)O[C@H]1C[C@@H](C)C=C2C=C[C@H](C)[C@H](CC[C@@H]3C[C@@H](O)CC(=O)O3)[C@H]21` [LOVASTATIN], the IC50 was > 200 µM with Plasmodium falciparum [1] (Plasmodium falciparum, Bre1); > 200 µM in the data set with Plasmodium falciparum [2] (Plasmodium falciparum, W2); > 200 µM in the data set with Plasmodium falciparum [3]; > 200 µM in the data set with Plasmodium falciparum [4]; > 200 µM with Plasmodium falciparum [5]; > 200 µM in the data set with Plasmodium falciparum [6].
On to `CC[C@H](C)C(=O)O[C@H]1CCC=C2C=C[C@H](C)[C@H](CC[C@@H]3C[C@@H](O)CC(=O)O3)[C@H]21` [MEVASTATIN], for which the IC50 with Plasmodium falciparum [1] (Plasmodium falciparum, Bre1) was > 200 µM; with Plasmodium falciparum [2] (Plasmodium falciparum, W2) it was > 200 µM; in the data set with Plasmodium falciparum [3] it was > 200 µM; with Plasmodium falciparum [4] it was > 200 µM; with Plasmodium falciparum [5], > 200 µM; in the data set with Plasmodium falciparum [6], > 200 µM.
As for `CC[C@H](C)C(=O)O[C@H]1C[C@H](O)C=C2C=C[C@H](C)[C@H](CC[C@@H](O)C[C@@H](O)CC(=O)O)[C@H]21` [PRAVASTATIN SODIUM], the IC50 in the data set on Plasmodium falciparum [1] (Plasmodium falciparum, Bre1) was > 200 µM; in the data set with Plasmodium falciparum [2] (Plasmodium falciparum, W2), > 200 µM; with Plasmodium falciparum [3], > 200 µM; with Plasmodium falciparum [4] it was > 200 µM; in the data set with Plasmodium falciparum [5], > 200 µM; in the data set with Plasmodium falciparum [6], > 200 µM.
As to `CCC(C)(C)C(=O)O[C@H]1C[C@@H](C)C=C2C=C[C@H](C)[C@H](CC[C@@H]3C[C@@H](O)CC(=O)O3)[C@H]21` [SIMVASTATIN], the IC50 in the data set with Plasmodium falciparum [1] (Plasmodium falciparum, Bre1) is > 200 µM; with Plasmodium falciparum [2] (Plasmodium falciparum, W2), > 200 µM; in the data set on Plasmodium falciparum [3] it was > 200 µM; in the data set on Plasmodium falciparum [4], > 200 µM; in the data set with Plasmodium falciparum [5], > 200 µM; in the data set on Plasmodium falciparum [6] it was > 200 µM.

One may read the IC50 as the concentration at which inhibition is half-maximal. Low values mean higher potency, high ones lower potency. Usually IC90 stands for the concentration needed for an effect of 90%. Low readings indicate an effect from little substance, high ones a need for much substance.

These data come from ChEMBL document CHEMBL1157377, “Atorvastatin is 10-fold more active in vitro than other statins against Plasmodium falciparum” (Antimicrob Agents Chemother, 2007).
